In patent publication US10570168B2, “2′ and/or 5′ amino-acid ester phosphoramidate 3′-deoxy adenosine derivatives as anti- cancer compounds” (NuCana plc, priority 2014, dated 2020):

Experiments:
Assay in all cases: Solid tumour and haematological malignancy assay (CellTiterGlo)
Type in all cases: cell-based
[1] = tested on: BxPC-3-Luc; settings: 72 h, read-out: EC50 (absolute EC50)
Protocol: (§1) In vitro viability assay were performed to assess the effects of compounds on cell viability in selected cell lines over 72 hr using the CellTiterGlo (CTG, Promega-G7573) assay. The tests were performed in duplicates with treatment of compounds at 9 points, 3.16 folds titration in 96 well plates over ˜72 hr. The compound starting concentrations were […]. Cell viability assay using CellTiterGlo in 96-well plate were performed. Compound treatment 72 hrs, standard growth conditions, duplicates. Compounds were dissolved to 40 mM with thawed […]. Compounds were serially diluted at 3.16 fold in thawed DMSO, and warmed to 37° C. before being dissolved in media ([…]). After compounds were dissolved in media, media containing compounds were warmed to 37° C. in incubator and then compounds in media were added to cell plates ([…]) in duplicates. The compounds' final concentrations were from […] to 19.9 nM. All compound solubilities were checked and recorded again, then the plates were transferred to CO2 tissue culture incubator immediately and incubated for 3 days. DMSO final concentration is 0.5%.

[2] = tested on: MV4-11; settings: Homo sapiens, MV4-11, 72 h
Protocol: as §1

[3] = tested on: RL; settings: Homo sapiens, 72 h
Protocol: as §1

[4] = tested on: RPMI-8226; settings: Homo sapiens, RPMI-8226, 72 h
Protocol: as §1

[5] = tested on: THP-1; settings: Homo sapiens, THP-1, 72 h
Protocol: as §1

[6] = tested on: NCI-H929; settings: Homo sapiens, NCI-H929, 72 h
Protocol: as §1

[7] = tested on: Z138; settings: Homo sapiens, Z-138, 72 h
Protocol: as §1

[8] = tested on: HS445; settings: Hs 445, 72 h
Protocol: as §1

[9] = tested on: MOLT-4; settings: Homo sapiens, MOLT-4, 72 h
Protocol: as §1

[10] = tested on: SW620; settings: Homo sapiens, SW-620, 72 h
Protocol: as §1

[11] = tested on: K562; settings: Homo sapiens, K562, 72 h
Outline: (§2)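 Viability measured by CellTiterGlo after cells grew with test compound for 72 hr; DMSO kept at 0.5% final.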

[12] = tested on: CCRFCEM; settings: Homo sapiens, CCRF-CEM, 72 h
Outline: as §2

[13] = tested on: HL-60; settings: Homo sapiens, HL-60, 72 h
Outline: as §2

[14] = tested on: MiaPaCa-2; settings: Homo sapiens, MIA PaCa-2, 72 h
Outline: as §2

[15] = tested on: HEL92.1.7; settings: Homo sapiens, HEL 92.1.7, 72 h
Outline: as §2

[16] = tested on: MCF7; settings: Homo sapiens, MCF7, 72 h
Outline: as §2

[17] = tested on: KG-1; settings: Homo sapiens, KG-1, 72 h
Outline: as §2

[18] = tested on: HepG2; settings: Homo sapiens, HepG2, 72 h
Outline: as §2

[19] = tested on: HT29; settings: Homo sapiens, HT-29, 72 h
Outline: as §2

CC(NP(=O)(OC[C@@H]1C[C@@H](O)[C@H](n2cnc3c(N)nc(Cl)nc32)O1)Oc1cccc2ccccc12)C(=O)OCc1ccccc1 (stereo in doubt) [S, (2R)-benzyl 2-((((2S,4R,5R)-5-(6-amino-2-chloro-9H-purin-9-yl)-4-hydroxytetrahydrofuran-2-yl)methoxy)(naphthalen-1-yloxy)phosphorylamino)propanoate] showed an EC50 [1] of 15 to 100 µM, an EC50 ([2]; read-out: EC50 (absolute EC50)) of 5 to 15 µM and an Emax ([2]; read-out: MI %) of 101%. For the same compound, the EC50 ([3]; read-out: EC50 (absolute EC50)) was 5 to 15 µM, the Emax ([3]; read-out: MI %) was 100% and the EC50 ([4]; read-out: EC50 (absolute EC50)) was 15 to 100 µM. For the same compound, the Emax ([4]; read-out: MI %) was 99.6%, the EC50 ([5]; read-out: EC50 (absolute EC50)) was 15 to 100 µM and the Emax ([5]; read-out: MI %) was 97%. For the same compound, the EC50 ([6]; read-out: EC50 (absolute EC50)) was 5 to 15 µM, the Emax ([6]; read-out: MI %) was 102% and the EC50 ([7]; read-out: EC50 (absolute EC50)) was 15 to 100 µM. For the same compound, the Emax ([7]; read-out: MI %) was 90.2%, the EC50 ([8]; read-out: EC50 (absolute EC50)) was 15 to 100 µM and the Emax ([8]; read-out: MI %) was 106%. The EC50 ([9]; read-out: EC50 (absolute EC50)) was 5 to 15 µM, the Emax ([9]; read-out: MI %) was 100% and the EC50 ([10]; read-out: EC50 (absolute EC50)) was 15 to 100 µM. For the same compound, the Emax ([10]; read-out: MI %) was 92.1%, the EC50 ([11]; read-out: EC50 (absolute EC50)) was 15 to 100 µM and the Emax ([11]; read-out: MI %) was 101%. The EC50 ([12]; read-out: EC50 (absolute EC50)) was 5 to 15 µM, the Emax ([12]; read-out: MI %) was 100% and the EC50 ([13]; read-out: EC50 (absolute EC50)) was 5 to 15 µM. The Emax ([13]; read-out: MI %) was 102%, the EC50 ([14]; read-out: EC50 (absolute EC50)) was 15 to 100 µM and the Emax ([14]; read-out: MI %) was 98.2%. It also gave an EC50 ([15]; read-out: EC50 (absolute EC50)) of 5 to 15 µM, an Emax ([15]; read-out: MI %) of 100% and an EC50 ([16]; read-out: EC50 (absolute EC50)) of 15 to 100 µM. The Emax ([16]; read-out: MI %) was 101%, the EC50 ([17]; read-out: EC50 (absolute EC50)) was 15 to 100 µM and the Emax ([17]; read-out: MI %) was 99%. It also gave an EC50 ([18]; read-out: EC50 (absolute EC50)) of 15 to 100 µM, an Emax ([18]; read-out: MI %) of 84.6% and an EC50 ([19]; read-out: EC50 (absolute EC50)) of 15 to 100 µM. For the same compound, the Emax ([19]; read-out: MI %) was 88.1%.
